From patent publication US9989520B2, “Human hepatoma cell line HLCZ01 and uses thereof” (HUNAN PROVINCIAL TUMOR HOSPITAL, priority 2013, dated 2018)

B1: TRAIL (protein, UniProt P50591 1-281, looked up)
Tumor necrosis factor ligand …: MAMMEVQGGPSLGQTCVLIVIFTVLLQSLCVAVTYVYFTNELKQMQDKYSKSGIACFLKEDDSYWDPNDEESMNSPCWQVKWQLRQLVRKMILRTSEETISTVQEKQQNISPLVRERGPQRVAAHITGTRGRSNTLSSPNSKNEKALGRKINSWESSRSGHSFLSNLHLRNGELVIHEKGFYYIYSQTYFRFQEEIKENTKNDKQMVQYIYKYTSYPDPILLMKSARNSCWSKDAEYGLYSIYQGGIFELKENDRIFVSVTNEHLIDMDHEASFFGAFLVG
notes: TRAIL at the current phase II of clinical trail

Tests used:
[1] = test system: hepatitis B virus; assay: α-interferon treatment of HBV-infected HLCZ01 cells (amount of HBV, quantitative PCR); format: cell-based, hepatitis B virus (in human hepatoma cell line HLCZ01); conditions: based on amount of α-interferon added and processing time (days), FIG. 9
Description: FIG. 9 is a column diagram for the human hepatoma cell line HLCZ01 according to the above second embodiment of the present invention, illustrating the amount of HBV with respect to the amount of interferon used and time (days).
The human hepatoma cell line HLCZ01 is placed on the 60 mm culture plate. After 24 hours, the medium (DMEM medium) is replaced to the mixture of a supernatant of HepaG2.2.15 cells with a complete medium (1:1 by volume ratio), and then the human hepatoma cell line HLCZ01 is continuously cultured. The cells were passaged every 3 to 5 days. DNA from HBV-infected human hepatoma cell line HLCZ01 was isolated every three days. One microgram of DNA from HBV-infected HLCZ01 cells is used as template for processing quantitative PCR and HBV DNA level in the human hepatoma cell line HLCZ01 is detected.
According to the human hepatoma cell line HLCZ01 of the present invention, the human hepatoma cell line HLCZ01 can also be used for the preparation, screening or evaluating the anti-HBV drugs. […] Therefore, the human hepatoma cell line HLCZ01 of the present invention can be used for the preparation, screening or evaluating the anti-HBV drugs.

[2] = test system: hepatitis C virus; assay: α-interferon treatment of HCV-infected HLCZ01 cells (amount of HCV, quantitative PCR); format: cell-based, hepatitis C virus (in human hepatoma cell line HLCZ01); conditions: with respect to doses of α-interferon and time (hours), FIG. 10
Description: FIG. 10 is a column diagram for the human hepatoma cell line HLCZ01 according to the above first embodiment of the present invention, illustrating the amount of HCV with respect to the amount of interferon used and time (hours).
1. The human hepatoma cell line HLCZ01 cells and Huh7.5 cells are placed on the 6-well cell culture plate (200,000/well). After 24 hours, the medium is replaced with medium containing 2% FBS, and the cells are infected by HCV. The medium is changed after 24 hours. Huh7.5 cells and human hepatoma cell line HLCZ01 are cultured for 1 day, 2 days, 3 days and 6 days respectively, and TRIZOL is used to extract total RNA from the above mentioned two cell lines at different time points after virus infection. One microgram of the total RNA is reversely transcribed into cDNA, and 1 μL of cDNA are used as templates for processing quantitative PCR.
According to the human hepatoma cell line HLCZ01 of the present invention, the human hepatoma cell line HLCZ01 can also be used for the preparation, screening or evaluating anti-HCV drugs. […] Therefore, the human hepatoma cell line HLCZ01 of the present invention can be used for the preparation, screening or evaluating the anti-HCV drugs.

[3] = test system: HLCZ01 cells; assay: TRAIL sensitivity of HLCZ01 cells by flow cytometry; format: cell-based, human; conditions: HLCZ01 cells treated with TRAIL, FIG. 11

Molecule	amount of HBV in the human hepatoma cell line HLCZ01 [1]	amount of virus in HCV-infected HLCZ01 cells [2]	death of the HLCZ01 cells [3]
α-interferon	able to reduce the amount of HBV in the human hepatoma cell line HLCZ01	able to reduce the amount of virus in HCV-infected HLCZ01 cells	
B1			able to induce the death of the HLCZ01 cells
